Assay results as given in PMC7160362, “A Polyamine-Based Dinitro-Naphthalimide Conjugate as Substrates for Polyamine Transporters Preferentially Accumulates in Cancer Cells and Minimizes Side Effects in vitro and in vivo” (Frontiers in Chemistry, 2020).
Where two headings read alike, the source gives them in different places.

Key:
[1] = system: MCF-7 cells (breast carcinoma); test: MTT cytotoxicity assay; type: cell-based; conditions: for IC50: Homo sapiens, MCF7, MTT, 48 h
Experimental: (§1) We incubated hepatic carcinoma (Snu-368 and Snu-739), breast carcinoma (MDA-MB-231 and MCF-7), cisplatin-sensitive lung cancer cells A549, and cisplatin-resistant lung cancer cells A549cisR in 96-well plates in a 5% CO2 atmosphere at 37°C for 24 h (5,000 cells/well). After adding drugs in freshly prepared culture medium (100 μl) and incubating for another 48 h, we added 20 μl MTT (5 mg/ml) and incubated for another 3 h. At last, after the medium was removed, 150 μl DMSO was added. By using a Bio-Rad 680 microplate reader, the absorbance was measured at 570 nm and the IC50 values were calculated using the GraphPad Prism software based on three parallel experiments.
(§2) In vitro assays were firstly conducted to evaluate the inhibitory effect of polyamine-based naphthalimide conjugates 5a-5c, 7a-7b, and 11a-11b on six cancer cell lines, namely, Snu-368 and Sun-739 (hepatoma cell line), MCF-7 (breast carcinoma), MDA-MB-231 (triple negative breast cancer), cisplatin-sensitive lung cancer A549, and resistant A549cisR cells by using traditional MTT tests. Two classic antitumor agents in clinic trials, amonafide and cisplatin, were chosen as the reference drugs (Table 1). The preliminary structure–activity relationship (SAR) can be obtained from the in vitro biological results.

[2] = system: MDA-MB-231 cells (triple negative breast cancer); test: MTT cytotoxicity assay; type: cell-based; conditions: MDA-MB-231; for IC50: Homo sapiens, MTT, 48 h
Experimental: as §1, §2

[3] = system: Snu-368 cells (hepatic carcinoma); test: MTT cytotoxicity assay; type: cell-based; conditions: for IC50: MTT, 48 h
Experimental: as §1, §2

[4] = system: Snu-739 cells (hepatic carcinoma); test: MTT cytotoxicity assay; type: cell-based; conditions: for IC50: SNU-739, MTT, 48 h
Experimental: as §1, §2

[5] = system: cisplatin-resistant lung cancer cells A549cisR; test: MTT cytotoxicity assay; type: cell-based; conditions: for RF (resistance factor): IC50 in A549cisR cells/IC50 in A549 cells; for IC50: MTT, 48 h
Experimental: as §1, §2

[6] = system: cisplatin-sensitive lung cancer cells A549; test: MTT cytotoxicity assay; type: cell-based; conditions: A549; for IC50: Homo sapiens, MTT, 48 h
Experimental: as §1, §2

[7] = system: HL-7702 (normal liver cell); test: MTT cytotoxicity on matched normal cells; type: cell-based; conditions: for IC50: Homo sapiens
Experimental: as §1
The selectivity for cancer cells over normal healthy cells is important for ideal anticancer agents, thereby mitigating undesired toxic side effects associated with chemotherapy. The selectivity of polyamine-based dinitro-naphthalimide conjugates 5a-5c was evaluated by Snu-368 and Snu-739 (hepatic carcinoma), and the matched normal cells HL-7702 (normal liver cell). Moreover, dinitro-naphthalimide conjugates 5a-5c (SI 1.94–7.47) show lower cytotoxicity in normal cells.

HCC xenografts = test: In vivo antitumor assay, HCC xenografts; conditions: for tumor suppression (inhibition rate, tumor weight): tail vein, once every day for 7 days
Text: Healthy BALB/c mice (Cat. SCXK 2016-0006, Beijing, China) aged 5 weeks were used for the determination of anticancer activity. We obtained BALB/c mice from the Laboratory Animal Center, Academy of Military Medical Science. They were raised in compliance with the Guide for the Care and Use of Laboratory Animals. The weight of healthy BALB/c mice is 18–22 g.
We firstly injected HCC cells with 1 × 10^6 cells per mouse to determine the anticancer activity. After a week, the tumors increased to 80–120 mm^3. The mice were divided into four groups for 5c (3 mg/kg), 5c (5 mg/kg), the positive control amonafide (5 mg/kg), or the negative control physiological saline. We injected 5c or amonafide via the tail vein every day for a total of seven treatments. Body weight was determined every day. And then the mice were sacrificed after 7 days. The tumor tissues were weighed and the inhibition rate [((average tumor weight of negative control group – average tumor weight of the drug treated or positive control group)/average tumor weight of control group) × 100] was calculated. The organ index [(organ weight/body weight) × 100%] was also counted including heart, liver, kidney, lung, and spleen at the last day. Both 5c and amonafide were dissolved in glucose injection. And they were used immediately after preparation.
The highest FI levels in Snu-739 also indicate a significant therapy for HCC. Therefore, HCC animal models were used to test the in vivo antitumor activities. Mice bearing HCC xenografts were treated with 5c (3 mg/kg), 5c (5 mg/kg), the positive control amonafide (5 mg/kg), and normal saline (negative control) once every day for 7 days by tail vein (Figure 3).

Snu-739 cells = test: Annexin V-FITC/PI staining, flow cytometry; type: cell-based
Experimental: Annexin V-FITC/PI staining was used to detect the apoptosis of Snu-739 cells by FCM (flow cytometry). Firstly, we plated the cells in six-well plates (1 × 10^5 cells/well). 5c 10 μM and amonafide 10 μM were added and incubated for 24 h. And then we harvested the cells and washed three times with PBS. Then the protocol was stained according to our previous report (Wang et al., [2012]; Li et al., [2016], [2018]; Dai et al., [2017a]; Ma et al., [2017a],[b]; Ma et al., [2018]; Liu et al., [2019]) and was performed by FCM (BD Biosciences, San Jose, CA, USA).

p53 in Snu-739 cells = test: Western blot of p53; type: cell-based; conditions: Snu-739, 24 h
Experimental: We performed western blot analysis to determine the contents of p53 after treatment by 5c for 5, 10, and 15 μM for 24 h. After washing three times with PBS, we harvested and centrifuged the cells, which were lysed with a RIPA buffer (Beyotime, China). The total contents of protein were determined by a BCA assay kit (Beyotime, China). At 100°C for 10 min, the total lysates were denatured in a 5 × SDS-loading buffer. Equal amounts of total proteins were separated by 12% SDS-PAGE. Dried skimmed milk (5%) was used to block the separated protein in Tris Buffered Saline Tween (TBST) at room temperature for 1 h. And then the corresponding primary antibodies and the appropriate HRP-conjugated secondary antibody were used to incubate with the separated protein. By ECL plus reagents (Beyotime, Jiangsu, China), we detected the expression of p53.

[8] = system: polyamine oxidase (PAO) in Snu-368 cells; test: PAO assay kit; type: cell-based; conditions: Snu-368, 10 μM, 24 h
Text: (§3) We measured the total PAO level using a PAO assay kit according to our previous report (Liu et al., [2019]) (Hepeng Biotechnology, Cat. HEPENGBIO156).

[9] = system: polyamine oxidase (PAO) in Snu-739 cells; test: PAO assay kit; type: cell-based; conditions: Snu-739, 10 μM, 24 h
Text: as §3

[10] = system: Put, Spd, and Spm in Snu-368 cells; test: Polyamine contents assay (HPLC, dansyl derivatives); type: cell-based; conditions: Snu-368, 24 h
Text: (§4) According to our previous report (Wang et al., [2012]; Li et al., [2016], [2018]; Dai et al., [2017a]; Ma et al., [2017a],[b], [2018]; Liu et al., [2019]), the contents of Put, Spd, and Spm were detected by a G1321A fluorescence detector in both Snu-368 and Snu-739 cells. Cells were harvested and dansyl chloride was used as the derivation reagent. After converting to the corresponding dansyl derivatives, Put, Spd, and Spm were separated by using High Performance Liquid Chromatogra (HPLC) (Agilent 1260, Agilent Technologies, USA) with a C18 chromatographic column (25 × 4.6 mm, 5 μm). As the internal standard substance, 1,6-diaminohexane was used. The excitation and emission wavelengths were 340 and 515 nm, separately. The mobile phase was methanol–water from 65:35 to 100:0 within 30 min.

[11] = system: Put, Spd, and Spm in Snu-739 cells; test: as above; type: cell-based; conditions: Snu-739, 24 h
Text: as §4

[12] = system: six cancer cell lines (Snu-368, Snu-739, MCF-7, MDA-MB-231, A549, A549cisR); test: MTT cytotoxicity assay, whole panel; type: cell-based; conditions: versus amonafide and cisplatin
Experimental: as §1, §2

O=C1c2cc([N+](=O)[O-])cc3cc([N+](=O)[O-])cc(c23)C(=O)N1CCCCNCCCNC1CCCCC1 [5a]
IC50 [1]: 2.3 ± 0.18 µM
IC50 [2]: 1.19 ± 0.12 µM
IC50 [3]: 2.94 ± 0.06 µM
IC50 [4]: 2.16 ± 0.1 µM
RF (resistance factor) [5]: 1.67
IC50 [5]: 3.62 ± 0.15 µM
IC50 [6]: 2.17 ± 0.2 µM
SI (selectivity index) IC50 in HL-7702/IC50 in Snu-368 [7]: 2.14
SI (selectivity index) IC50 in HL-7702/IC50 in Snu-739 [7]: 2.92
IC50 ([7]; L02, read-out: IC50 HL-7702): 6.3 ± 0.23 µM

O=C1c2cc([N+](=O)[O-])cc3cc([N+](=O)[O-])cc(c23)C(=O)N1CCCCNCCCCNC1CCCCC1 [5b]
IC50 [1]: 1.25 ± 0.1 µM
IC50 [2]: 1.07 ± 0.1 µM
IC50 [3]: 2.72 ± 0.25 µM
IC50 [4]: 3.89 ± 0.35 µM
RF (resistance factor) [5]: 1.30
IC50 [5]: 2.27 ± 0.25 µM
IC50 [6]: 1.75 ± 0.15 µM
SI (selectivity index) IC50 in HL-7702/IC50 in Snu-368 [7]: 2.78
SI (selectivity index) IC50 in HL-7702/IC50 in Snu-739 [7]: 1.94
IC50 ([7]; L02, read-out: IC50 HL-7702): 7.56 ± 0.43 µM

O=C1c2cc([N+](=O)[O-])cc3cc([N+](=O)[O-])cc(c23)C(=O)N1CCCCNCCCNC1CC1 [5c]
IC50 [1]: 1.35 ± 0.15 µM
FI (fold increase) IC50(amonafide)/IC50(5c) ([1]; MCF-7): 4.36
FI (fold increase) IC50(cisplatin)/IC50(5c) ([1]; MCF-7): 7.11
IC50 [2]: 1.33 ± 0.12 µM
FI (fold increase) IC50(amonafide)/IC50(5c) [2]: 11.20
FI (fold increase) IC50(cisplatin)/IC50(5c) [2]: 12.02
IC50 [3]: 1.09 ± 0.1 µM
FI (fold increase) IC50(amonafide)/IC50(5c) ([3]; Snu-368): 12.83
FI (fold increase) IC50(cisplatin)/IC50(5c) ([3]; Snu-368): 15.02
IC50 [4]: 0.76 ± 0.05 µM
FI (fold increase) IC50(amonafide)/IC50(5c) ([4]; Snu-739): 17.08
FI (fold increase) IC50(cisplatin)/IC50(5c) ([4]; Snu-739): 13.18
FI (fold increase) IC50(amonafide)/IC50(5c) ([5]; A549cisR): 13.23
FI (fold increase) IC50(cisplatin)/IC50(5c) ([5]; A549cisR): 48.63
RF (resistance factor) [5]: 0.43
IC50 [5]: 0.83 ± 0.08 µM
FI (fold increase) amonafide/5c in RF column ([5]; ratio of RF values): 3.70
FI (fold increase) IC50(amonafide)/IC50(5c) [6]: 3.59
FI (fold increase) IC50(cisplatin)/IC50(5c) [6]: 5.73
IC50 [6]: 1.92 ± 0.23 µM
SI (selectivity index) IC50 in HL-7702/IC50 in Snu-368 [7]: 5.21
SI (selectivity index) IC50 in HL-7702/IC50 in Snu-739 [7]: 7.47
SI (selectivity index), range over Snu-368 and Snu-739 ([7]; HL-7702 versus Snu-368 and Snu-739): 5.21–7.47
IC50 ([7]; L02, normal liver cell, read-out: IC50 HL-7702): 5.68 ± 0.83 µM
tumor suppression (inhibition rate, tumor weight) (HCC xenografts; 3 mg/kg): 57.97%
tumor suppression (inhibition rate, tumor weight) (HCC xenografts; 5 mg/kg): 65.90%
average tumor volume (HCC xenografts; day 7, control group 900 mm^3, dose not stated): 480 mm^3
organ weight indexes / toxicological profile in vivo (HCC xenografts; heart, liver, kidney, lung, spleen, end of experiment): no obvious pathological changes
early apoptotic cells (Snu-739 cells; 10 μM, 24 h): 35.00%
late apoptotic cells (Snu-739 cells; 10 μM, 24 h): 38.50%
apoptotic cells (Snu-739 cells; total of early and late): 73.50%
p53 protein expression (p53 in Snu-739 cells): upregulated
relative PAO activity versus control group [8]: 1.5–2 folds
relative PAO activity versus control group [9]: 1.5–2 folds
contents of Put, Spd, and Spm versus control group [10]: downregulated
contents of Put, Spd, and Spm versus control group [11]: downregulated
FI (fold increase), range over cell lines [12]: 3.59–48.63

Nc1cc2c3c(cc(N)cc3c1)C(=O)N(CCCCNCCCNC1CC1)C2=O [7a]
IC50 [1]: 8.62 ± 0.85 µM
IC50 [2]: 26.9 ± 2.65 µM
IC50 [3]: > 30 µM
IC50 [4]: 25.8 ± 2.9 µM
IC50 [5]: 17.4 ± 1.68 µM
IC50 [6]: 14 ± 1.39 µM
